Measurements reported in patent US20100086483A1, “METHOD OF MULTIDETECTOR COMPUTED TOMAGRAPHY” (Gilead Palo Alto, Inc., priority 2008, published 2010).

Assays:
normal subjects = test: Safety and tolerability of regadenoson with and without prior caffeine; assay type: in vivo, human; details: regadenoson 400 μg IV
Experimental: 15O water was used as the radionuclide in the PET scans. There was a 1- to 14-day washout period between dosing days. Blood samples and measures of safety were collected until 120 minutes after study drug administration.
Safety measures included adverse events (AEs), serious adverse events, vital signs (HR and BP), ECG, concomitant medications, and a tolerability questionnaire. All available data from subjects who received the single dose of regadenoson were to be included in the statistical summaries.
ECG intervals and changes from baseline values in ECG intervals were to be presented, as were occurrences of rhythm or conduction abnormalities. Concomitant medication usage was to be summarized.
Tolerability questionnaire responses were to be analyzed using the Wilcoxen rank sum test (“How did you feel?” question) and the exact Cochran-Mantel-Haenszel test (Day 2-only question “How did this test compare to the first test?”).

conscious dogs = test: Effects of caffeine on regadenoson-induced coronary vasodilation and changes in hemodynamics in conscious dogs (Part II); assay type: in vivo, dog; details: for change of maximum increase in CBF induced by regadenoson vs control: regadenoson 5 μg/kg IV, p>0.05
Experimental: Sixteen chronically instrumented male mongrel dogs weighing from 22-30 kg were used in the study. The animal protocol was approved by the Institutional Animal Care and Use Committee of New York Medical College and conforms to the Guide for the Care and Use of Laboratory Animal by the United States National Institutes of Health.
Dogs were sedated with acepromazine (0.3 mg/kg, IM) and anesthetized with pentobarbital sodium (25 mg/kg, IV). After intubation, dogs were artificially ventilated with room air. A thoracotomy was made in the fifth intercostal space using sterile techniques. A Tygon catheter (Cardiovascular Instruments, Wakefield, Mass.) was inserted into the descending thoracic aorta and another one was inserted into the left atrium. In 9 dogs, an ultrasound flow transducer (Transonic Systems, Ithaca, N.Y.) was placed around the left circumflex coronary artery. A solid-state pressure gauge (P6.5, Konisberg Instruments, Pasadena, Calif.) was placed into the left ventricle through the apex. The chest was closed in layers. The catheters and wires were tunneled subcutaneously and externalized through the skin at the back of the dog's neck. Dogs were allowed to recover from the surgery before experiments were performed, and were trained to lie on a table.
Phasic arterial pressure was measured by connecting the aortic catheter to a strain gauge transducer (P23 ID, LDS Test and Measurement, Valley View, Ohio). Left ventricular pressures were measured by the solid pressure gauge. CBF (mL/min) was measured from an ultrasound flow transducer using a Transonic flowmeter (T206, Transonic Systems, Ithaca, N.Y.). Two indices were used to describe the regadenoson-induced coronary vasodilation: 1) the maximum increase in CBF and 2) the duration of the 2-fold increase in CBF (the period of time that CBF was elevated to a level ≧2-fold of baseline CBF). All pressure and flow data were acquired and analyzed using a Ponemah System (Version 3.30 or 4.20, LDS Test and Measurement, Valley View, Ohio). MAP and HR were calculated from phasic blood pressure, and LV dP/dtMax was calculated from the left ventricular systolic pressure.
On the day of an experiment, a dog was placed on a table, where it lay quietly during the experiment. A catheter was inserted into a peripheral vein in the leg and attached to an infusion line to administer drugs without disturbing the dog. The experiment was begun after MAP, HR and CBF were stable.
Each dog received an IV injection of 5 μg/kg of regadenoson. […] LVSP, LV dP/dtMax, MAP, HR and CBF were recorded continuously. Blood samples were taken from the left atrial catheter at 1, 3, 5, 15, 30, 45 and 60 min following injections of regadenoson.
In 4 dogs, two doses of regadenoson (5 μg/kg, IV) were given 90 min apart (without blood sampling) to determine if there is tachyphylaxis of regadenoson-induced coronary vasodilation.
The statistical significance of a difference between the value of a parameter at baseline and at the indicated time point after drug administration was determined using a One-Way Repeated Measures ANOVA followed by Tukey's Test. […] Results with p<0.05 were considered to be significant. […] All data are presented as Mean±SEM.

[1] = caffeine 200 mg po vs placebo, p<0.001
[2] = regadenoson 5 μg/kg IV 45 min after caffeine 1 mg/kg IV, 1 min
[3] = regadenoson 5 μg/kg IV 45 min after caffeine 1 mg/kg IV, 2 min
[4] = regadenoson 5 μg/kg IV 45 min after caffeine 1 mg/kg IV, 3 min
[5] = regadenoson 5 μg/kg IV 45 min after caffeine 1 mg/kg IV, 20 min
[6] = regadenoson 5 μg/kg IV 45 min after caffeine 2 mg/kg IV, 1 min

Cn1c(=O)c2c(ncn2C)n(C)c1=O [Caffeine, caffeine]
tolerability questionnaire: comfort during the test with caffeine (normal subjects; [1]): felt more comfortable | tolerability questionnaire: feeling after the caffeine test vs the placebo test (normal subjects; [1]): felt better | effect of caffeine on severity of AEs (normal subjects; caffeine 200 mg po): attenuated | effect of caffeine on systolic or diastolic blood pressures in the presence of regadenoson (normal subjects; caffeine 200 mg po): no effect | overall incidence of AEs, placebo vs caffeine groups (normal subjects; caffeine 200 mg po): no difference | effect of caffeine on HR increase caused by regadenoson (normal subjects; caffeine 200 mg po, p<0.001): attenuated | regadenoson-induced headache severity with caffeine (normal subjects; caffeine 200 mg po, p=0.012): decreased | HR (conscious dogs; 45 min after caffeine 1 mg/kg IV, before regadenoson (baseline)): 74 ± 5 bpm | HR (conscious dogs; 45 min after caffeine 2 mg/kg IV, before regadenoson (baseline)): 75 ± 5 bpm | HR (conscious dogs; 45 min after caffeine 4 mg/kg IV, before regadenoson (baseline)): 81 ± 9 bpm | HR (conscious dogs; 45 min after caffeine 10 mg/kg IV, before regadenoson (baseline)): 78 ± 6 bpm | baseline CBF before vs after caffeine treatment (conscious dogs; 45 min after caffeine 1, 2, 4 and 10 mg/kg): not significantly different | change of maximum increase in CBF induced by regadenoson vs control (conscious dogs; caffeine 1 mg/kg IV): 2±3% | change of maximum increase in CBF induced by regadenoson vs control (conscious dogs; caffeine 2 mg/kg IV): −0.7±3% | change of maximum increase in CBF induced by regadenoson vs control (conscious dogs; caffeine 4 mg/kg IV): −16±5% | change of maximum increase in CBF induced by regadenoson vs control (conscious dogs; caffeine 10 mg/kg IV): −13±8% | effect on hemodynamics at 45 min following caffeine administration (conscious dogs; caffeine at 1, 2, 4 or 10 mg/kg): did not alter hemodynamics significantly | regadenoson-induced increase in LV dP/dtMax vs without caffeine (conscious dogs; in the presence of caffeine 1 mg/kg): slightly greater | regadenoson-induced increase in LV dP/dtMax vs without caffeine (conscious dogs; in the presence of caffeine 10 mg/kg): not altered | regadenoson-induced increase in LV dP/dtMax vs without caffeine (conscious dogs; in the presence of caffeine at 2 and 4 mg/kg): slightly smaller | HR (conscious dogs; regadenoson 5 μg/kg IV 45 min after caffeine 1 mg/kg IV, 0.5 min): 126 ± 7 bpm | HR (conscious dogs; [2]): 135 ± 9 bpm | MAP (conscious dogs; [2]): 100 ± 4 mm Hg | HR (conscious dogs; [3]): 131 ± 12 bpm | MAP (conscious dogs; [3]): 102 ± 4 mm Hg | HR (conscious dogs; [4]): 119 ± 9 bpm | MAP (conscious dogs; [4]): 101 ± 5 mm Hg | HR (conscious dogs; regadenoson 5 μg/kg IV 45 min after caffeine 1 mg/kg IV, 4 min): 110 ± 4 bpm | HR (conscious dogs; regadenoson 5 μg/kg IV 45 min after caffeine 1 mg/kg IV, 5 min): 106 ± 7 bpm | HR (conscious dogs; regadenoson 5 μg/kg IV 45 min after caffeine 1 mg/kg IV, 10 min): 89 ± 7 bpm | HR (conscious dogs; regadenoson 5 μg/kg IV 45 min after caffeine 1 mg/kg IV, 15 min): 87 ± 7 bpm | HR (conscious dogs; [5]): 81 ± 8 bpm | MAP (conscious dogs; [5]): 102 ± 4 mm Hg | HR (conscious dogs; regadenoson 5 μg/kg IV 45 min after caffeine 2 mg/kg IV, 0.5 min): 121 ± 10 bpm | HR (conscious dogs; [6]): 125 ± 10 bpm | MAP (conscious dogs; [6]): 102 ± 7 mm Hg | HR (conscious dogs; regadenoson 5 μg/kg IV 45 min after caffeine 2 mg/kg IV, 2 min): 122 ± 5 bpm | HR (conscious dogs; regadenoson 5 μg/kg IV 45 min after caffeine 2 mg/kg IV, 3 min): 110 ± 3 bpm | HR (conscious dogs; regadenoson 5 μg/kg IV 45 min after caffeine 2 mg/kg IV, 4 min): 106 ± 4 bpm | HR (conscious dogs; regadenoson 5 μg/kg IV 45 min after caffeine 2 mg/kg IV, 5 min): 97 ± 3 bpm | HR (conscious dogs; regadenoson 5 μg/kg IV 45 min after caffeine 2 mg/kg IV, 10 min): 84 ± 5 bpm | HR (conscious dogs; regadenoson 5 μg/kg IV 45 min after caffeine 2 mg/kg IV, 15 min): 85 ± 6 bpm | HR (conscious dogs; regadenoson 5 μg/kg IV 45 min after caffeine 2 mg/kg IV, 20 min): 84 ± 5 bpm | HR (conscious dogs; regadenoson 5 μg/kg IV 45 min after caffeine 4 mg/kg IV, 0.5 min): 126 ± 12 bpm | HR (conscious dogs; regadenoson 5 μg/kg IV 45 min after caffeine 4 mg/kg IV, 1 min): 114 ± 11 bpm | HR (conscious dogs; regadenoson 5 μg/kg IV 45 min after caffeine 4 mg/kg IV, 2 min): 106 ± 12 bpm | HR (conscious dogs; regadenoson 5 μg/kg IV 45 min after caffeine 4 mg/kg IV, 3 min): 102 ± 7 bpm | HR (conscious dogs; regadenoson 5 μg/kg IV 45 min after caffeine 4 mg/kg IV, 4 min): 94 ± 8 bpm | HR (conscious dogs; regadenoson 5 μg/kg IV 45 min after caffeine 4 mg/kg IV, 5 min): 94 ± 7 bpm | HR (conscious dogs; regadenoson 5 μg/kg IV 45 min after caffeine 4 mg/kg IV, 10 min): 85 ± 8 bpm | HR (conscious dogs; regadenoson 5 μg/kg IV 45 min after caffeine 4 mg/kg IV, 15 min): 85 ± 8 bpm | HR (conscious dogs; regadenoson 5 μg/kg IV 45 min after caffeine 4 mg/kg IV, 20 min): 87 ± 7 bpm | HR (conscious dogs; regadenoson 5 μg/kg IV 45 min after caffeine 10 mg/kg IV, 0.5 min): 115 ± 12 bpm | HR (conscious dogs; regadenoson 5 μg/kg IV 45 min after caffeine 10 mg/kg IV, 1 min): 102 ± 6 bpm | HR (conscious dogs; regadenoson 5 μg/kg IV 45 min after caffeine 10 mg/kg IV, 2 min): 106 ± 11 bpm | HR (conscious dogs; regadenoson 5 μg/kg IV 45 min after caffeine 10 mg/kg IV, 3 min): 96 ± 7 bpm | HR (conscious dogs; regadenoson 5 μg/kg IV 45 min after caffeine 10 mg/kg IV, 4 min): 94 ± 8 bpm | HR (conscious dogs; regadenoson 5 μg/kg IV 45 min after caffeine 10 mg/kg IV, 5 min): 93 ± 5 bpm | HR (conscious dogs; regadenoson 5 μg/kg IV 45 min after caffeine 10 mg/kg IV, 10 min): 88 ± 7 bpm | HR (conscious dogs; regadenoson 5 μg/kg IV 45 min after caffeine 10 mg/kg IV, 15 min): 88 ± 6 bpm | HR (conscious dogs; regadenoson 5 μg/kg IV 45 min after caffeine 10 mg/kg IV, 20 min): 86 ± 4 bpm
